Source: PMC8333062, “Chemical tools for epichaperome-mediated interactome dysfunctions of the central nervous system” (Nature Communications, 2021)

How the values were obtained:
[1] = test system: MDA-MB-468 tumors; test: In vivo biodistribution of [131I]-PU-HZ151 (gamma counting); parameters: species or system mouse; key to Biodistribution, Lung / Biodistribution, Heart / Biodistribution, Muscle / Biodistribution, Blood / Biodistribution, Bone / Biodistribution, Brain / Biodistribution, tumor: percent injected dose per gram tissue (%ID/g); Biodistribution, Tumor - S / Biodistribution, Tumor - L: unit: %ID/g; details: mean
Procedure: Activity in the syringe before and after administration was assayed in a dose calibrator (CRC-15R; Capintec) to determine by difference the actual activity administered to each animal. Animals were euthanized by CO2 asphyxiation at different time points post-administration of the tracer and organs including tumors were harvested and weighed. […] Count data were background and decay-corrected to the time of injection, and the percent injected dose per gram (%ID g^−1) for each tissue sample was calculated by using a measured calibration factor to convert count rate to activity and the activity was normalized to the activity injected and the mass of sample assayed to yield the activity concentration in %ID g^−1.

[2] = test system: MDA-MB-468 tumors; test: Radioactivity metabolite characterization (radio-HPLC of tumor extracts); format: in vivo, mouse; details: 24 h post iv
Procedure: MDA-MB-468 tumor xenografts were established on the forelimbs of female athymic nude mice (Hsd:Athymic Nude-Foxn1nu; Envigo; 6 weeks old; RRID:MGI:5652489) by subcutaneous (s.c.) injection of 5 × 10^6 cells in a 200 µl cell suspension of a 1:1 v/v mixture of PBS with reconstituted basement membrane (BD Matrigel^TM, Collaborative Biomedical Products Inc., Bedford, MA). […] After 24 h, tumors were harvested and weighed prior to homogenization in acetonitrile/H2O (3:7) using Bullet Blender Tissue Homogenizer (Next Advance Inc.). Tumor-associated radioactivity was extracted in methylene chloride, and the organic layer was separated and dried under vacuum. Samples were reconstituted in 10% CH3CN in 0.1% HCOOH in water were analyzed using Shimadzu (Columbia, Maryland USA) HPLC system equipped with binary pumps LC-20AB, UV detector and sodium iodide radioactivity detector connected to flow-ram (Lab Logic, Tampa, FL) and 250 × 4.6 mm Phenomenex Luna (Torrance, CA) C-18 HPLC column (10 µM, 100 A).

Biodistribution, Blood ([1]; 1 h): 0.732
Biodistribution, Bone ([1]; 1 h): 0.55
Biodistribution, Brain ([1]; 1 h): 0.397
Biodistribution, Heart ([1]; 1 h): 0.402
Biodistribution, Lung ([1]; 1 h): 0.666
Biodistribution, Muscle ([1]; 1 h): 0.29
Biodistribution, tumor ([1]; 1 h): 1.745
Biodistribution, Blood ([1]; 4 h): 0.1086
Biodistribution, Bone ([1]; 4 h): 0.07
Biodistribution, Brain ([1]; 4 h): 0.015
Biodistribution, Heart ([1]; 4 h): 0.063
Biodistribution, Lung ([1]; 4 h): 0.296
Biodistribution, Muscle ([1]; 4 h): 0.034
Biodistribution, Tumor - L ([1]; 4 h): 0.5106
Biodistribution, Tumor - S ([1]; 4 h): 0.5895
Biodistribution, Blood ([1]; 6 h): 0.08349
Biodistribution, Bone ([1]; 6 h): 0.05
Biodistribution, Brain ([1]; 6 h): 0.01
Biodistribution, Heart ([1]; 6 h): 0.045
Biodistribution, Lung ([1]; 6 h): 0.237
Biodistribution, Muscle ([1]; 6 h): 0.044
Biodistribution, Tumor - L ([1]; 6 h): 0.4547
Biodistribution, Tumor - S ([1]; 6 h): 0.5075
Biodistribution, tumor ([1]; 6 h): 0.5792
Biodistribution, Blood ([1]; 8 h): 0.05883
Biodistribution, Bone ([1]; 8 h): 0.033
Biodistribution, Brain ([1]; 8 h): 0.005
Biodistribution, Heart ([1]; 8 h): 0.027
Biodistribution, Lung ([1]; 8 h): 0.129
Biodistribution, Muscle ([1]; 8 h): 0.023
Biodistribution, Tumor - L ([1]; 8 h): 0.3061
Biodistribution, Tumor - S ([1]; 8 h): 0.2819
Biodistribution, Blood ([1]; 12 h): 0.02368
Biodistribution, Bone ([1]; 12 h): 0.012
Biodistribution, Brain ([1]; 12 h): 0.002
Biodistribution, Heart ([1]; 12 h): 0.009
Biodistribution, Lung ([1]; 12 h): 0.04
Biodistribution, Muscle ([1]; 12 h): 0.006
Biodistribution, Tumor - L ([1]; 12 h): 0.2552
Biodistribution, Tumor - S ([1]; 12 h): 0.2535
Biodistribution, Blood ([1]; first column group, 24 h): 0.002331
Biodistribution, Bone ([1]; first column group, 24 h): 0.016
Biodistribution, Brain ([1]; first column group, 24 h): 0.001
Biodistribution, Heart ([1]; first column group, 24 h): 0.003
Biodistribution, Lung ([1]; first column group, 24 h): 0.012
Biodistribution, Muscle ([1]; first column group, 24 h): 0.002
Biodistribution, Tumor - L ([1]; first column group, 24 h): 0.2045
Biodistribution, Tumor - S ([1]; first column group, 24 h): 0.1544
Biodistribution, Bone ([1]; first column group, 48 h): 0.004
Biodistribution, Brain ([1]; first column group, 48 h): 0
Biodistribution, Heart ([1]; first column group, 48 h): 0.002
Biodistribution, Lung ([1]; first column group, 48 h): 0.004
Biodistribution, Muscle ([1]; first column group, 48 h): 0.001
Biodistribution, Tumor - L ([1]; first column group, 48 h): 0.08346
Biodistribution, Tumor - S ([1]; first column group, 48 h): 0.08811
Biodistribution, Blood ([1]; second column group, 24 h): 0.0041
Biodistribution, Bone ([1]; second column group, 24 h): 0.012
Biodistribution, Brain ([1]; second column group, 24 h): 0.00319
Biodistribution, Heart ([1]; second column group, 24 h): 0.0138
Biodistribution, Lung ([1]; second column group, 24 h): 0.061
Biodistribution, Muscle ([1]; second column group, 24 h): 0.002
Biodistribution, tumor ([1]; second column group, 24 h): 0.1057
Biodistribution, Blood ([1]; second column group, 48 h): 0.00228
Biodistribution, Bone ([1]; second column group, 48 h): 0.0182
Biodistribution, Brain ([1]; second column group, 48 h): 0.00219
Biodistribution, Heart ([1]; second column group, 48 h): 0.00513
Biodistribution, Lung ([1]; second column group, 48 h): 0.0472
Biodistribution, Muscle ([1]; second column group, 48 h): 0.018
Biodistribution, tumor ([1]; second column group, 48 h): 0.03983
SMILES: CC(C)(C)CNCCn1c(Sc2cc3c(cc2[131I])OCO3)nc2c(N)ncnc21 [[131I]-PU-HZ151]
species in tumor extract [2]: only [^131I]-PU-HZ151 contributed to tumor-associated radioactivity
